Results from PMC11521914 (Frontiers in Pharmacology, 2024).

Assays:
[1] = target: T1, Fructose-1,6-bisphosphatase enzyme (FBPase) (Rattus norvegicus, UniProt P19112); experiment: Fructose-1,6-bisphosphatase (FBPase) enzyme activity inhibition assay; type: biochemical; settings: rat liver cytosolic supernatant, 0.1 mM FBP
T1 construct: The reaction was started by adding the cytosolic supernatant previously diluted in buffer without substrate; from tissue; host or cells: rat liver, cytosolic supernatant
T1 sequence (P19112 1-363): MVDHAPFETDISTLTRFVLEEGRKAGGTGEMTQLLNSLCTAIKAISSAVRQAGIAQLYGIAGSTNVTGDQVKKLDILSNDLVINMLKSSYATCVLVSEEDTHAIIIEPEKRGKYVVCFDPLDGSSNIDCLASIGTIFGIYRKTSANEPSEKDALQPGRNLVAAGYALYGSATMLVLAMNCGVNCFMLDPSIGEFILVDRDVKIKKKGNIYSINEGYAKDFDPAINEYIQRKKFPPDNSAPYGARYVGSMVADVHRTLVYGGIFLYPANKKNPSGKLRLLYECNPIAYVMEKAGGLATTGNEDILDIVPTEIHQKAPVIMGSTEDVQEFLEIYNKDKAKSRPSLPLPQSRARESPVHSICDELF
Method: (§1) Livers were removed from 18-h fasted healthy rats (3), which were previously anesthetized with 5% isoflurane ([Unit for Laboratory Animal Medicine, 2023]). Then, they were homogenized in buffer (250 mM sucrose, 1 mM EDTA, 5 mM HEPES, pH 7.4), filtered, and subsequently subjected to differential centrifugation as described by [Andrade-Cetto and Cárdenas-Vázquez (2010)]. Both the microsome-enriched supernatant (containing the enzyme complex glucose-6-phosphatase) and the cytosolic supernatant (containing the enzyme fructose-1,6-bisphosphatase) were collected and stored at −40°C until use.
Colorimetric assays were performed to detect the formation of a phosphomolybdate-malachite green complex with the inorganic phosphate released by the enzyme FBPase. […]
The assays were carried out with substrate-enriched buffer (5 µM EDTA, 5 mM MgCl2, 50 mM Tris-HCl, 0.1 mM FBP, pH 7.2) to which the inhibitors were added at different concentrations (AMP, EtOH-WCg, or junceic acid). […] Finally, the absorbance was measured at 630 nm.
(§2) Finally, for in vitro experiments, absorbance values were transformed into activity percentages following the next formula: Enzyme activity %=AS−ASB/AC−ACB×100
(§3) Where A S is the absorbance of the inhibitor sample at a specific concentration, A SB is the blank of the inhibitor sample, A C is the highest absorbance (without inhibitor), and A CB is the blank of the highest absorbance. […]

[2] = target: T2, Glucose-6-phosphatase enzyme (G6Pase) (Rattus norvegicus, UniProt P43428); experiment: Glucose-6-phosphatase (G6Pase) enzyme activity inhibition assay; type: biochemical; settings: rat liver microsome-enriched supernatant, 20 mM G6P
T2 construct: dilutions of the supernatant enriched with microsomes were prepared with buffer; from tissue; host or cells: rat liver, microsome-enriched fraction
T2 sequence (P43428 1-357): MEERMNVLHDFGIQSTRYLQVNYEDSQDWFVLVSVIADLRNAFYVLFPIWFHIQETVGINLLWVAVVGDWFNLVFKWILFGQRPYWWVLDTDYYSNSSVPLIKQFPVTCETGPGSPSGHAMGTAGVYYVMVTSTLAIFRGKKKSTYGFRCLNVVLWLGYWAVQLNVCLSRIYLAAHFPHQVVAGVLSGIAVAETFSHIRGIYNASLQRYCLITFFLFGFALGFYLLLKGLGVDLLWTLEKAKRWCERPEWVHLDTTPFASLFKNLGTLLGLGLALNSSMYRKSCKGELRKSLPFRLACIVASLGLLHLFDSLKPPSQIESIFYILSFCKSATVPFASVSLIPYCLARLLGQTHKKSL
Method: as §1
Colorimetric assays were carried out to detect the formation of a phosphomolybdate complex, which is proportional to the activity of the G6Pase enzyme complex. The reaction turns blue when G6Pase releases the inorganic phosphate and therefore the lower the color intensity, the greater the inhibition ([Arion, 1989]). […] Finally, the absorbance was measured at 830 nm.
as §2, §3

[3] = tested on: STZ-NA-hyperglycemic rats; experiment: Evaluation of the hypoglycemic effect (acute glucose curves); type: in vivo, Wistar rats
Method: (§4) All procedures carried out on animals were approved by the Academic Ethics and Scientific Responsibility Commission (CEARC) of the School of Sciences, UNAM with protocol numbers PI_2021_08_23, PI_2022_21_05b, and PI_2022_22_07. Wistar rats of both sexes, 8 weeks old, were acquired and maintained under standard bioterium conditions (25°C, 55% humidity and 12:12 h light and dark photoperiod) with water and food ad libitum. Treatment administration (vehicle and samples) was performed orally with the help of an esophageal cannula. Blood samples were obtained from the tail vein and glucose measurements were performed in duplicate using Accu-Chek® Active glucometers.
In summary hyperglycemia was induced as described by [Masiello et al. (1998)], rats fasted for 12 h were administered intraperitoneally with 150 mg/kg b. w. of NA and, 15 min later, 65 mg/kg b. w. of STZ was injected intravenously. After 2 weeks, animals with blood glucose values above 180 mg/dL were selected to perform the tests described below.
Basal glucose levels were assessed before giving the treatments. Immediately after the administration of treatments, glucose levels were monitored every hour for 3 h ([Espinoza-Hernández et al., 2021]). Thirty rats fasted for 4 h were divided into five groups (n = 6 each group): 1. Normoglycemic Control (N), administered with physiological solution (vehicle); 2. Hyperglycemic Control (H), which received physiological solution; 3. Hyperglycemic Control + glibenclamide, which was administered with 5 mg/kg b. w. (Aurax®) (HGli) ([Berridge et al., 1992]); 4. Hyperglycemic Group + EtOH-WCg, which received 30 mg/kg b. w. (HCg); and 5. Hyperglycemic Group + junceic acid, administered with 5.6 mg/kg b. w. (HJa).

[4] = tested on: normoglycemic (healthy) rats; experiment: Fasting glucose and insulin levels, normoglycemic rats; type: in vivo, Wistar rats; settings: normoglycemic rats fasted 12 h, 2 h, glibenclamide 5 mg/kg
Method: as §4
(§5) Normoglycemic (healthy) and hyperglycemic rats were used after 12 h of fasting selecting those with blood glucose levels between 90 and 110 mg/dL and 180–220 mg/dL, respectively. Before the administration of the treatment and every 30 min for 2 h, glucose levels were determined and additional blood samples (approximately 300 µL) were obtained, which were immediately centrifuged at 10,000 g for 10 min. […] Insulin quantification was performed using the immunoassay Rat/Mouse Insulin ELISA kit EZRMI-13KEMD Millipore/Merck ([Espinoza-Hernández et al., 2021]). […]
(§6) Data are presented as mean ± standard error of the mean (SEM). […] Differences detected with p < 0.05 were considered statistically significant. […]

[5] = tested on: STZ-NA-hyperglycemic rats; experiment: Fasting glucose and insulin levels, hyperglycemic rats; type: in vivo, Wistar rats; settings: hyperglycemic rats fasted 12 h, 2 h; glibenclamide 5 mg/kg, EtOH-WCg 30 mg/kg, junceic acid 5.6 mg/kg b.w.
Method: as §4, with “glucometers. […]” for “glucometers.”
as §5, §6

[6] = tested on: normoglycemic (healthy) rats; experiment: Insulin tolerance tests (insulin sensitivity assessment); type: in vivo, Wistar rats; settings: healthy rats fasted 4 h
Method: as §4
First, basal glucose was determined and, immediately after, treatments were given. Forty-5 min later, glucose levels were measured and then isophane insulin (Aurax®; 0.5 U/kg b. w.) was administered intraperitoneally. Glucose levels were monitored at minutes 15, 30, 60, and 120 after insulin injection. In total, 24 rats were divided into four groups (n = 6 each group): 1. Control, which received physiological solution (C); 2. […]
Where Tx is the value of glucose or insulin at each time and T0 is the baseline value. Next, AUC were calculated and compared by applying t tests for intergroup comparisons and repeated measures ANOVA followed by Dunnett post hoc tests for intragroup comparisons. […]

[7] = tested on: normoglycemic (healthy) rats; experiment: Postprandial glucose and insulin levels (glucose tolerance test), normoglycemic rats; type: in vivo, Wistar rats; settings: glucose load 2 g/kg
Method: as §4, §5, §6

[8] = tested on: STZ-NA-hyperglycemic rats; experiment: Postprandial glucose and insulin levels (glucose tolerance test), hyperglycemic rats; type: in vivo, Wistar rats; settings: glucose load 2 g/kg
Method: as §4, with “glucometers. […]” for “glucometers.”
as §5, §6

## Nc1ncnc2c1ncn2[C@@H]1O[C@H](COP(=O)(O)O)[C@@H](O)[C@H]1O.O [AMP, adenosine 5′-monophosphate monohydrate]
[1]
  IC50: 95 µM
  Inhibition %: 96%

## O=C(/C=C/c1ccc(O)c(O)c1)O[C@@H]1C[C@](O)(C(=O)O)C[C@@H](O)[C@H]1O [Clorogenic acid, chlorogenic acid]
[2]
  IC50: 346 µM
  Inhibition %: 83%

## COc1ccc(Cl)cc1C(=O)NCCc1ccc(S(=O)(=O)NC(=O)NC2CCCCC2)cc1 [glibenclamide]
[3]; 60 min after administration, maintained throughout the experiment, p < 0.05
  hypoglycemic effect compared with the hyperglycemic control group (H): significant hypoglycemic effect
[3]; STZ-NA-hyperglycemic rats fasted 4 h, oral, 3 h curve, glibenclamide 5 mg/kg, EtOH-WCg 30 mg/kg, junceic acid 5.6 mg/kg b.w.
  glucose decrease at the end of the study: 57%
[3]; STZ-NA-hyperglycemic rats fasted 4 h, oral, glibenclamide 5 mg/kg, EtOH-WCg 30 mg/kg, junceic acid 5.6 mg/kg b.w.
  decrease of total blood glucose (AUC) compared with control (H): 65%
[4]; EtOH-WCg 30 mg/kg b.w.
  effect on plasma insulin in fasting: increase in plasma insulin
[4]; EtOH-WCg 30 mg/kg, junceic acid 5.6 mg/kg b.w.
  effect on blood glucose in fasting: significant hypoglycemic effect
[5]
  effect on blood glucose in fasting: significant hypoglycemic effect
  effect on plasma insulin in fasting: increase in plasma insulin

## CCc1ccc(CCOc2ccc(CC3SC(=O)NC3=O)cc2)nc1 (centres unmarked) [pioglitazone]
[6]; insulin tolerance test, 120 min
  inverse AUC and KITT analyzes compared with control (C): eliminated more glucose throughout the experiment at a higher removal rate than C
[6]; isophane insulin 0.5 U/kg i.p. 45 min after treatment, pioglitazone 20 mg/kg, EtOH-WCg 30 mg/kg, junceic acid 5.6 mg/kg b.w.
  potentiation of the glucose-lowering effect of insulin compared with control (C): exacerbated the glucose-lowering effect of insulin

## CCOc1cc(CC(=O)N[C@@H](CC(C)C)c2ccccc2N2CCCCC2)ccc1C(=O)O [repaglinide]
[7]; healthy rats, at 30 min, repaglinide 1 mg/kg b.w.
  increase of insulin levels: more than 500%
[7]; normoglycemic rats, repaglinide 1 mg/kg, EtOH-WCg 30 mg/kg, junceic acid 5.6 mg/kg b.w.
  effect on the hyperglycemic peak after the glucose load: significantly decreased the hyperglycemic peak
[8]; at 30 min, repaglinide 1 mg/kg b.w.
  increase of insulin levels: under 25%
[8]; repaglinide 1 mg/kg, EtOH-WCg 30 mg/kg, junceic acid 5.6 mg/kg b.w.
  effect on postprandial hyperglycemia after the glucose load: significantly decreased the hyperglycemic peak
